According to patent EP2345639A1, “Cyclic hydroxylamine derivatives, their preparation and use as antioxidants” (ABIOGEN PHARMA S.p.A., priority 2009, dated 2011):
Read-outs that look alike come from different tables or passages of the source.

What was measured:
[1] = tested on: healthy animals; assay: Effect of the compounds on healthy animals (same in vivo assay, cerebral oxidative parameters); design: species or system mice; conditions: for Brain/BWi / CAT/pr / GPX/pr / GSH/pr / GST/pr / Prot. Hmg / Prot. Ox/pr / SOD/pr: 50 mg/kg IP x3 days, percentage change relative to the vehicle
Procedure: (§1) 10 mice were used for each treatment group. For each compound 50 mg/kg were administered intraperitoneally (IP) for three consecutive days (day 0, 1 and 2); half the animals (5) also received IP 16.7 mg/kg of doxorubicin immediately after the first treatment (day 0). On the day after the last administration (day 3) the animals were killed by neck dislocation and the brains were removed, weighed and frozen in liquid nitrogen.
(§2) For the analyses of oxidative stress, 100 mg/ml of brain homogenate was prepared in HEB^(*) buffer (pH 7.4 EDTA/HEPES^(**)) containing a mixture of enzyme inhibitors (Leupeptin, Pepstatin, Aprotinin, BHA).
(§3) The evaluation parameters were: • BrW/BWi: ratio between final brain weight and initial body weight (day 0); • Prot. Hmg: total proteins in the homogenate (BCA method, i.e. bicinchoninic acid); • Prot. Ox: oxidized proteins in the Hmg by means of a colorimetric method using dinitrophenylhydrazone (DNPH); • GSH: reduced glutathione in the supernatant (sn) of the Hmg, obtained after precipitation with metaphosphoric acid (MPA), by means of a colorimetric method using dithiodinitrobenzene (DTNB); • CAT: catalase in the Hmg by a colorimetric method using potassium dichromate; • SOD: superoxide dismutase by a colorimetric method using SOD Reagent (xanthine, EDTA, nitroblue tetrazole, Na2CO3, BSA, i.e. bovine serum albumin); • GST: glutathione S-transferase in the supernatant by a colorimetric method using chlorodinitrobenzene (CDNB) and GSH; and • GPx: glutathione peroxidase in the supernatant after addition of GSH and t-BuOOH, heating and precipitation with MPA; followed by GSH method with DTNB. The assay was performed on the compounds (1)-(5) and (7)-(11) and on edaravone (E), as comparative compound.
The mean % effect, on all the parameters simultaneously, of the triple treatment in healthy animal, as mean percentage change relative to the vehicle. This value is useful as an approximate safety index of the oxidative state of the brain, i.e. the capacity of the compounds of the invention not to alter cerebral homeostasis in healthy animals.

[2] = TEAC method (Trolox Equivalent Antioxidant Capacity Assay); assay type: biochemical; conditions: ratio of gradient to gradient of Trolox; 650 nm, 37 °C, about 90 minutes
Source text: This assay is used to measure the total antioxidant activity of pure substances, biological fluids and plant compounds and is based on the reaction of antioxidants with the cation radical ABTS·^+ (2,2'-azinobis(3-ethylbenzothiazolin-6-sulphonate)). This cation radical is metastable and has to be generated just before the experiment by reacting ABTS with hydrogen peroxide in the presence of HRP. This radical can be reduced, with consequent loss of absorbance, by an antioxidant whose scavenging capacity can be measured spectrophotometrically at 650 nm. The test is carried out at 37 °C and the results are obtained from a comparison with Trolox (a synthetic antioxidant and hydrophilic analogue of vitamin E).
The ABTS solution S1 was prepared as follows: • 20 mg of ABTS were added to 50 mM of citric acid buffer (40 ml) at pH=4.5 and to the resulting solution there was added an aqueous solution of HRP (4.4 mg, 400 µl) and an aqueous solution of H2O2 (10 µl of a 30% solution diluted with 16.3 ml of water).
For each of the compounds (1)-(11), as synthesized above, there was prepared a 600 µM solution in water, methanol or DMSO according to its solubility, as well as a Trolox solution as reference.
Each solution was diluted to produce 6 solutions each at a concentration between 25 µM and 300 µM. From each of the diluted and divided solutions, there were withdrawn 20 µl to which 200 µl of solution S1 were then added.
The decrease in absorbance of each solution thus obtained was monitored at 650 nm until a stable value was reached (about 90 minutes).
For each set of 6 solutions and for the reference trolox solution, the absorption was given in graph form as a function of the amount of compound (nmol) in the solution. The gradient of the straight line obtained by linear interpolation was determined according to the least squares method. The TEAC value of each compound of the invention is given in the table below and is expressed as the ratio between the gradient of the resulting straight line and the gradient of the reference (trolox) straight line.

[3] = Brain-to-plasma concentration ratio in mice; assay type: in vivo, Female CD-1 mice; conditions: female, CD-1, mouse, ip, 25 mg/kg intraperitoneal, area under the curve of brain and plasma concentrations 0 to 60 minutes, read-out: B/P ratio
Procedure: The ability of the compounds of the invention to penetrate the brain was investigated by measuring their brain/plasma (B/P) ratio in mice following intraperitoneal administration.
Female CD-1 mice were used (n=3 for each time period) and received the compounds of the invention by intraperitoneal administration, in 25 mg/kg doses in a 0.5% NaHCO3 buffer (pH 8.3). At predefined intervals following said administration, i.e. 5, 15, 30 and 60 minutes, the mice were killed and both plasma and total brain tissue were collected.
Specifically, after anaesthesia with ether, the animals were bled by blood withdrawal from the abdominal aorta then immediately decapitated. The blood samples were collected into plasma separator tubes containing Li-Heparin as anticoagulant and centrifuged. The resulting plasma was then stored at -20 °C. The brain was rapidly removed from the cranium and weighed, subsequently frozen and stored at -20 °C before treatment by homogenization and HPLC analysis.
The plasma was thawed and mixed with an equal volume of the extraction solution.
1 ml of solution was then extracted by adding 20 µl of 70% HClO4, then centrifuged at 15,500g for 5 minutes and injected into the HPLC.
Each brain was thawed and homogenized with the extraction solution to provide a final composition of 4 ml/1g of tissue by means of an Ultra-Turrax blender and sonicated for 5 minutes. After centrifugation of the homogenate at 15,500g for 5 minutes, the resulting solution was treated with HClO4, as indicated for the plasma. Specific chromatographic conditions had been developed for each analyte, the calibration curve being constructed for plasma and brain homogenate.

[4] = tested on: doxorubicin-induced cerebral oxidative stress in mice; assay: In vivo assay of cerebral oxidative stress induced in mice by doxorubicin (model and oxidized animals); conditions: for inhibition in vivo at 50 mg/kg / change in vivo at 50 mg/kg: Mus musculus; for inhibition in vivo at 50 mg/kg: overall, read-out: inhibition of the doxorubicin effect
Procedure: The assay was carried out on compounds (1)-(5) and (7)-(11) and on edaravone (E) as comparative compound.
as §1, §2, §3
The mean effect (n=5 experiments) of doxorubicin (D), i.e. "oxidized" animal, relative to the vehicle (V), the vehicle representing the healthy animal.
All the parameters, with the exclusion of Brain/BWi and Prot. Hmg, were normalized for total Hmg proteins. The D value standard deviations and the % incidence relative to V are given in italics.
The effect of the tested compounds on the "oxidized" animals was given as % inhibition relative to the percentage change due to doxorubicin alone. The effect of the compounds on the oxidized animals can be expressed both as a function of the values of the vehicle (healthy, vehicle only) and as a function of the value of its own (healthy, compound only): • Vehicle: percentage [(Compound+D)/V]x100/[(V+D)/V]x100 • Its own: percentage [(Compound+D)/Compound]x100/[(V+D)/V]x100
Again in this case, the mean % effect relative to doxorubicin alone could be given for all the parameters simultaneously, as an approximate index of effectiveness on the cerebral oxidative state of the animal.

[5] = healthy mice, 50 mg/kg IP for three consecutive days, mean over all parameters, D = doxorubicin alone, 50 mg/kg
[6] = ip, compared with its own vehicle
[7] = ip, oxidized mice, % inhibition relative to change due to doxorubicin alone, vs its own, read-out: Brain/BWi its own
[8] = ip, oxidized mice, % inhibition relative to change due to doxorubicin alone, vs its own, read-out: CAT/pr its own
[9] = ip, oxidized mice, % inhibition relative to change due to doxorubicin alone, vs its own, read-out: GPX/pr its own
[10] = ip, oxidized mice, % inhibition relative to change due to doxorubicin alone, vs its own, read-out: GSH/pr its own
[11] = ip, oxidized mice, % inhibition relative to change due to doxorubicin alone, vs its own, read-out: GST/pr its own
[12] = ip, oxidized mice, % inhibition relative to change due to doxorubicin alone, vs its own, read-out: Prot. Hmg its own
[13] = ip, oxidized mice, % inhibition relative to change due to doxorubicin alone, vs its own, read-out: Prot. Ox/pr its own
[14] = ip, oxidized mice, % inhibition relative to change due to doxorubicin alone, vs its own, read-out: SOD/pr its own
[15] = ip, oxidized mice, % inhibition relative to change due to doxorubicin alone, vs vehicle, read-out: Brain/BWi vehicle
[16] = ip, oxidized mice, % inhibition relative to change due to doxorubicin alone, vs vehicle, read-out: CAT/pr vehicle
[17] = ip, oxidized mice, % inhibition relative to change due to doxorubicin alone, vs vehicle, read-out: GPX/pr vehicle
[18] = ip, oxidized mice, % inhibition relative to change due to doxorubicin alone, vs vehicle, read-out: GSH/pr vehicle
[19] = ip, oxidized mice, % inhibition relative to change due to doxorubicin alone, vs vehicle, read-out: GST/pr vehicle
[20] = ip, oxidized mice, % inhibition relative to change due to doxorubicin alone, vs vehicle, read-out: Prot. Hmg vehicle
[21] = ip, oxidized mice, % inhibition relative to change due to doxorubicin alone, vs vehicle, read-out: Prot. Ox/pr vehicle
[22] = ip, oxidized mice, % inhibition relative to change due to doxorubicin alone, vs vehicle, read-out: SOD/pr vehicle
[23] = oxidized mice, 50 mg/kg IP x3 days + doxorubicin, computed as a function of its own (healthy, compound only), read-out: mean % effect relative to doxorubicin alone, all parameters (Its own)

Structure (SMILES)	Brain/BWi ([1]; healthy mice) [%]	TEAC [2]	inhibition in vivo at 50 mg/kg [4, 6] [%]	change in vivo at 50 mg/kg [4, 7] [%]	change in vivo at 50 mg/kg [4, 8] [%]	change in vivo at 50 mg/kg [4, 9] [%]	change in vivo at 50 mg/kg [4, 10] [%]	change in vivo at 50 mg/kg [4, 11] [%]	change in vivo at 50 mg/kg [4, 12] [%]	change in vivo at 50 mg/kg [4, 13] [%]	change in vivo at 50 mg/kg [4, 14] [%]	change in vivo at 50 mg/kg [4, 15] [%]	change in vivo at 50 mg/kg [4, 16] [%]	change in vivo at 50 mg/kg [4, 17] [%]	change in vivo at 50 mg/kg [4, 18] [%]	change in vivo at 50 mg/kg [4, 19] [%]	change in vivo at 50 mg/kg [4, 20] [%]	change in vivo at 50 mg/kg [4, 21] [%]	change in vivo at 50 mg/kg [4, 22] [%]	change in vivo at 50 mg/kg [4, 23] [%]	further results
O=C1CCC(=O)C1C1COCCN1O (stereo not drawn) [(7), 2-(4-hydroxymorpholin-3-yl)-cyclopentane-1,3-dione]	-9.8	1.5	~85	-85.5	-45.5	-30.3	-138	-29.7	-48.2	20.3	-23.8	21.7	2.3	-23.2	-60.8	-22	-14.5	-22.1	-25.9	-85.5	Average % variation with respect to the vehicle [1, 5]: did not significantly alter the parameters; Average % variation with respect to the vehicle ([1]; healthy mice, 50 mg/kg IP for three consecutive days, mean over all parameters, D = doxorubicin alone, listed as V+(7), 50 mg/kg): -3.5%; CAT/pr ([1]; healthy mice): -11.6%; GPX/pr ([1]; healthy mice): -0.8%; GSH/pr ([1]; healthy mice): -9.5%; GST/pr ([1]; healthy mice): -0.5%; Prot. Hmg ([1]; healthy mice): 3.6%; Prot. Ox/pr ([1]; healthy mice): -7.2%; SOD/pr ([1]; healthy mice): 0.5%; Kp [3]: > 0.1
CC1=NN(c2ccccc2)C(=O)C1C1COCCN1O (stereo not drawn) [(11), 4-(4-hydroxymorpholin-3-yl)-3-methyl-1-phenyl-1H-pyrazol-5(4H)-one]	-2.7	2.0	~65	-23.2	36.4	-7.1	-21.6	-2.2	-15.7	-84.3	-2.1	11.6	60.6	9.1	-16	1.1	-2.4	-69.8	18.9	-64.7	Average % variation with respect to the vehicle [1, 5]: did not significantly alter the parameters; Average % variation with respect to the vehicle ([1]; healthy mice, 50 mg/kg IP for three consecutive days, mean over all parameters, D = doxorubicin alone, listed as V+(11), 50 mg/kg): -2.0%; CAT/pr ([1]; healthy mice): -1.6%; GPX/pr ([1]; healthy mice): -3.3%; GSH/pr ([1]; healthy mice): -1.2%; GST/pr ([1]; healthy mice): -0.9%; Prot. Hmg ([1]; healthy mice): 1.7%; Prot. Ox/pr ([1]; healthy mice): 1.5%; SOD/pr ([1]; healthy mice): -33. %; Kp [3]: > 0.1
O=C1c2ccccc2C(=O)C1C1COCCN1O (stereo not drawn) [(8), 2-(4-hydroxymorpholin-3-yl)-2H-indene-1,3-dione]	–	1.5	45 to 50	-103	-28.8	-2	-139	-14.3	-20.5	-96.5	-11.9	0	27.3	29.3	-48	68.1	49.4	-65.7	11.9	-45.6	Average % variation with respect to the vehicle ([1]; mouse, in vivo, ip, 50 mg/kg): -8.0%
CC1=NN(c2ccccc2)C(=O)C1 [edaravone, reference compound]	2.7	0.9	75	-13	-120	-130	-111	-126	-117	-5.2	-49	-44.9	-100	-106	-59.2	-110	-102	-22.7	-32.9	-77.2	Average % variation with respect to the vehicle ([1]; healthy mice, 50 mg/kg IP for three consecutive days, mean over all parameters, D = doxorubicin alone): -2.7%; CAT/pr ([1]; healthy mice): -5.0%; GPX/pr ([1]; healthy mice): -6.7%; GSH/pr ([1]; healthy mice): -5.5%; GST/pr ([1]; healthy mice): -3.1%; Prot. Hmg ([1]; healthy mice): 3.7%; Prot. Ox/pr ([1]; healthy mice): -2.3%; SOD/pr ([1]; healthy mice): -2.2%; Kp [3]: 0.123; inhibition in vivo at 50 mg/kg ([4]; ip, with respect to the vehicle): ~75%; mean % effect relative to doxorubicin alone, all parameters (Vehicle) ([4]; oxidized mice, 50 mg/kg IP x3 days + doxorubicin, computed as a function of the vehicle): -72.3%
